Measurements from patent US8318681B2, “Utilization of peptides as active ingredients for slimming” (ISP Investments Inc., priority 2006, dated 2012).
Ends that are not written are not given here.

System: pre-adipocyte cell line 3T3-L1
Assay: Activity of the peptides on adipocytes: 3T3-L1 pre-adipocytes differentiated into mature adipocytes, Oil Red staining of lipid vacuoles, microscope observation
Type: cell-based
Details: mature adipocytes from 3T3-L1, treated with solution containing the peptide
Experimental: The number and the size of the lipid vacuoles present in the mature adipocytes are evaluated by microscope observation after specific staining with the “Oil Red” stain.
The pre-adipocyte cells 3T3-L1 are seeded in Labteks and maintained until 100% confluence in DMEM 10% SVF culture medium. The cells are treated with the peptide of sequence ID N° (5), representative of the family of peptides per the invention, placed in 1% solution à 1% starting with a solution of 50 ppm. Nontreated controls were prepared in parallel.
Once confluence is achieved, the cells are cultivated in the presence of differentiation inducers (IBMX, dexamethasone and insulin), so as to bring about the final differentiation into mature adipocytes. The differentiated adipocytes are further incubated for 3 hours with the peptide being tested in a concentration of 1%. Nontreated controls were prepared in parallel.
The adipocytes are then fixed for 10 minutes in a 4% formol and NaCl solution, after which the “Oil Red” stain solution (Sigma, O-0625) is applied for 15 minutes. The cells are then rinsed with warm water and mounted on slides, in hydrophilic medium (Aquatex). The observation is done under an optical microscope.

GLYDNLE [sequence ID N^o (5)]
morphology of mature adipocytes (versus nontreated controls (voluminous spherical shape)): less rounded | content of intra-adipocyte lipid vesicles (versus nontreated controls, Oil Red stain): clearly diminished
